Laboratory results as given in ChEMBL document CHEMBL1201862, “PubChem BioAssay data set” (2004).
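Method: 48-hour compound exposure of cells in 96-well plates, five concentrations, linear interpolation of endpoints. The concentration for 50% growth inhibition is given as GI50.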 Activity calls are given as the source filed them. Cut-off read from the data, not from the text of the source: active = GI50 up to about 1.1 µM and inactive = higher.

Tests used:
Experiment in all cases: NCI anticancer screen, dose series, 48 h
[1] = tested on: COLO 205
[2] = tested on: SR
[3] = tested on: SK-MEL-5
[4] = tested on: SNB-19
[5] = tested on: UACC-62
[6] = tested on: Malme-3M
[7] = tested on: HCT-116
[8] = tested on: MDA-N
[9] = tested on: HL-60
[10] = tested on: A549
[11] = tested on: SK-MEL-28
[12] = tested on: OVCAR-3
[13] = tested on: MDA-MB-231
[14] = tested on: MDA-MB-435
[15] = tested on: RXF 393
[16] = tested on: OVCAR-8
[17] = tested on: TK-10
[18] = tested on: RPMI-8226
[19] = tested on: LOX IMVI
[20] = tested on: EKVX
[21] = tested on: SF-295
[22] = tested on: HOP-92
[23] = tested on: BT-549
[24] = tested on: SNB-75
[25] = tested on: SF-268
[26] = tested on: SW-620
[27] = tested on: HCC 2998
[28] = tested on: T47D
[29] = tested on: UO-31
[30] = tested on: Hs-578T
[31] = tested on: PC-3
[32] = tested on: A498
[33] = tested on: OVCAR-5
[34] = tested on: OVCAR-4
[35] = tested on: SF-539
[36] = tested on: HT-29
[37] = tested on: CAKI-1
[38] = tested on: KM12
[39] = tested on: ACHN
[40] = tested on: NCI/ADR-RES
[41] = tested on: NCI-H522
[42] = tested on: HCT-15
[43] = tested on: HOP-62
[44] = tested on: M14
[45] = tested on: DU-145
[46] = tested on: NCI-H460
[47] = tested on: SN12C
[48] = tested on: MOLT-4
[49] = tested on: NCI-H23
[50] = tested on: SK-OV-3
[51] = tested on: CCRF-CEM
[52] = tested on: UACC-257
[53] = tested on: SK-MEL-2
[54] = tested on: IGROV-1
[55] = tested on: MCF7
[56] = tested on: 786-0
[57] = tested on: U-251
[58] = tested on: NCI-H226
[59] = tested on: K562

Cc1ccc(NC(=O)CSc2nc(O)nc3[nH]cnc23)cc1
GI50 [1]: > 100 µM (inactive)
GI50 [2]: 35.6 µM (inactive)
GI50 [3]: 86.9 µM (inactive)
GI50 [4]: 68.7 µM (inactive)
GI50 [5]: > 100 µM (inactive)
GI50 [6]: > 100 µM (inactive)
GI50 [7]: > 100 µM (inactive)
GI50 [8]: 90.2 µM (inactive)
GI50 [9]: > 100 µM (inactive)
GI50 [10]: > 100 µM (inactive)
GI50 [11]: > 100 µM (inactive)
GI50 [12]: > 100 µM (inactive)
GI50 [13]: > 100 µM (inactive)
GI50 [14]: 53.8 µM (inactive)
GI50 [15]: > 100 µM (inactive)
GI50 [16]: > 100 µM (inactive)
GI50 [17]: > 100 µM (inactive)
GI50 [18]: 50.5 µM (inactive)
GI50 [19]: 35.6 µM (inactive)
GI50 [20]: > 100 µM (inactive)
GI50 [21]: 62.7 µM (inactive)
GI50 [22]: > 100 µM (inactive)
GI50 [23]: 54.5 µM (inactive)
GI50 [24]: > 100 µM (inactive)
GI50 [25]: 48.5 µM (inactive)
GI50 [26]: 66.2 µM (inactive)
GI50 [27]: > 100 µM (inactive)
GI50 [28]: > 100 µM (inactive)
GI50 [29]: > 100 µM (inactive)
GI50 [30]: 68.9 µM (inactive)
GI50 [31]: 97.5 µM (inactive)
GI50 [32]: 28.2 µM (inactive)
GI50 [33]: 49.7 µM (inactive)
GI50 [34]: > 100 µM (inactive)
GI50 [35]: 24 µM (inactive)
GI50 [36]: > 100 µM (inactive)
GI50 [37]: > 100 µM (inactive)
GI50 [38]: > 100 µM (inactive)
GI50 [39]: > 100 µM (inactive)
GI50 [40]: 80.2 µM (inactive)
GI50 [41]: > 100 µM (inactive)
GI50 [42]: > 100 µM
GI50 [43]: 48.5 µM (inactive)
GI50 [44]: > 100 µM (inactive)
GI50 [45]: > 100 µM (inactive)
GI50 [46]: > 100 µM (inactive)
GI50 [47]: 30.5 µM (inactive)
GI50 [48]: 58.7 µM (inactive)
GI50 [49]: > 100 µM (inactive)
GI50 [50]: > 100 µM (inactive)
GI50 [51]: 27.7 µM (inactive)
GI50 [52]: > 100 µM (inactive)
GI50 [53]: > 100 µM (inactive)
GI50 [54]: > 100 µM (inactive)
GI50 [55]: 45.2 µM (inactive)
GI50 [56]: 44.6 µM (inactive)
GI50 [57]: 41.1 µM (inactive)
GI50 [58]: 33.8 µM (inactive)
GI50 [59]: > 100 µM (inactive)

Clc1cc2c(c(CSC3=NCN(CC4CC4)CN3)c1)OCOC2
GI50 [1]: 13.6 µM (inactive)
GI50 [2]: 15.2 µM (inactive)
GI50 [3]: 17.7 µM (inactive)
GI50 [4]: 26.1 µM (inactive)
GI50 [5]: 17.9 µM (inactive)
GI50 [6]: 18.2 µM (inactive)
GI50 [7]: 18.5 µM (inactive)
GI50 [8]: 16.3 µM (inactive)
GI50 [9]: 13.6 µM (inactive)
GI50 [10]: 22.8 µM (inactive)
GI50 [11]: 19.8 µM (inactive)
GI50 [12]: 23.4 µM (inactive)
GI50 [13]: 19.5 µM (inactive)
GI50 [14]: 21.8 µM (inactive)
GI50 [15]: 17.3 µM (inactive)
GI50 [16]: 26.9 µM (inactive)
GI50 [17]: 17.2 µM (inactive)
GI50 [18]: 12.1 µM (inactive)
GI50 [19]: 25.1 µM (inactive)
GI50 [20]: 20 µM (inactive)
GI50 [21]: 24.6 µM (inactive)
GI50 [22]: 37.6 µM (inactive)
GI50 [23]: 19.1 µM (inactive)
GI50 [24]: 18.4 µM (inactive)
GI50 [25]: 27.3 µM (inactive)
GI50 [26]: 20.5 µM (inactive)
GI50 [27]: 15.2 µM (inactive)
GI50 [28]: 12.9 µM (inactive)
GI50 [29]: 12.7 µM (inactive)
GI50 [30]: 33.7 µM (inactive)
GI50 [31]: 23 µM (inactive)
GI50 [32]: 20.7 µM (inactive)
GI50 [33]: 21 µM (inactive)
GI50 [34]: 34.3 µM (inactive)
GI50 [35]: 20.3 µM (inactive)
GI50 [36]: 20.3 µM (inactive)
GI50 [37]: 34.2 µM (inactive)
GI50 [38]: 30.8 µM (inactive)
GI50 [39]: 17.6 µM (inactive)
GI50 [40]: 20.6 µM (inactive)
GI50 [41]: 14.5 µM (inactive)
GI50 [42]: 21.5 µM
GI50 [43]: 21.9 µM (inactive)
GI50 [44]: 13.8 µM (inactive)
GI50 [45]: 26.1 µM (inactive)
GI50 [46]: 17.8 µM (inactive)
GI50 [47]: 28.6 µM (inactive)
GI50 [48]: 22.5 µM (inactive)
GI50 [49]: 17.1 µM (inactive)
GI50 [50]: 24.6 µM (inactive)
GI50 [51]: 5.35 µM (inactive)
GI50 [52]: 16.2 µM (inactive)
GI50 [53]: 19.1 µM (inactive)
GI50 [54]: 35.9 µM (inactive)
GI50 [55]: 20.8 µM (inactive)
GI50 [56]: 19.8 µM (inactive)
GI50 [57]: 19.6 µM (inactive)
GI50 [58]: 20.7 µM (inactive)
GI50 [59]: 28.1 µM (inactive)
